The target in assay [1] is Beta-1 adrenergic receptor (Homo sapiens, UniProt P08588). Description: DRUGMATRIX: Adrenergic beta1 radioligand binding (ligand: [125I] Cyanopindolol). Type of assay: cell membranes, CHO-K1, Membrane. To be noted: cho-k1; Not Active = under 50% inhibition at 10 µM.
Assay [2] has as its target 5-hydroxytryptamine receptor 2B (Homo sapiens, UniProt P41595). Type of assay: cell membranes, CHO-K1, Membrane. Further: in other assays of this panel Not Active means under 50% inhibition at 10 µM.
In assay [3] the target is 5-hydroxytryptamine receptor 4 (Cavia porcellus, UniProt O70528). Type of assay: cell membranes, Dunkin-Hartley, Striatum, Membrane. Further: in other assays of this panel Not Active means under 50% inhibition at 10 µM.
In assay [4] the target is C-C chemokine receptor type 2 (Homo sapiens, UniProt P41597). Type of assay: cell membranes, Membrane. Particulars: cho-k1. Further: in other assays of this panel Not Active means under 50% inhibition at 10 µM.
Assay [5] deals with T1, Polyunsaturated fatty acid lipoxygenase ALOX15 (Oryctolagus cuniculus, UniProt P12530).
T1 sequence (P12530 whole entry): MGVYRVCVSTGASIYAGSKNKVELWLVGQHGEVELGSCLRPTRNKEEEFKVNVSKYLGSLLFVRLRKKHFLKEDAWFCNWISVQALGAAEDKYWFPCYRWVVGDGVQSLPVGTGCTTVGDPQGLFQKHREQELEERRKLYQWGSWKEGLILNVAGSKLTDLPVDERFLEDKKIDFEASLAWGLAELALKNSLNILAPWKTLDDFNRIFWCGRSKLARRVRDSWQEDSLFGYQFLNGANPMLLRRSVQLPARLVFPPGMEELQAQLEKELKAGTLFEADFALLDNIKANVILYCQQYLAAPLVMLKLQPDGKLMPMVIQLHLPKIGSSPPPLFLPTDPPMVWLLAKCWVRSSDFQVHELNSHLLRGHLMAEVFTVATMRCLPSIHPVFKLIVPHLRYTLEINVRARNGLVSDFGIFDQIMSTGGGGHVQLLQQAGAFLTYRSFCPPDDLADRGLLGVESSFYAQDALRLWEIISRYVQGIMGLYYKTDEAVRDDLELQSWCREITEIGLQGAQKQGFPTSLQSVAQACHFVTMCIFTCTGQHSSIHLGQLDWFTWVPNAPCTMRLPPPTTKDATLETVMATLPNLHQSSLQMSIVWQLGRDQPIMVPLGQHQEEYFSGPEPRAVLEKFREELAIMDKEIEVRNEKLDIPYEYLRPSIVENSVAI
Description: biochemical. Type of assay: tissue-based, Reticulocytes.

Assay [6] concerns the target Estrogen receptor beta (Homo sapiens, UniProt Q92731). To be noted: sf9. Further: in other assays of this panel Not Active means under 50% inhibition at 10 µM.

Sequence of Beta-1 adrenergic receptor (P08588 whole entry): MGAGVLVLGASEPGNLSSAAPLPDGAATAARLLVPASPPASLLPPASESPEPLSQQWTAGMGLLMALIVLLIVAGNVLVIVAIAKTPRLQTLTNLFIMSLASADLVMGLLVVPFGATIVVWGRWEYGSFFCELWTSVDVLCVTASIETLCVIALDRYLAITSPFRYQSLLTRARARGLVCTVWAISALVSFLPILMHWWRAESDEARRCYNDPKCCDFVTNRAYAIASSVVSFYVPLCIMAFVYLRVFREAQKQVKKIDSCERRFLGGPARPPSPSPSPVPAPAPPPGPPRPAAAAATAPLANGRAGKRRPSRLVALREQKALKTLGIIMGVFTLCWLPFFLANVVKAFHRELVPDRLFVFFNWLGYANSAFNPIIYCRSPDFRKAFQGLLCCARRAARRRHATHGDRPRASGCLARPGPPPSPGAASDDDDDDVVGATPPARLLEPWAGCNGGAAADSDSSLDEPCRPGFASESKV
Sequence of 5-hydroxytryptamine receptor 2B (P41595 whole entry): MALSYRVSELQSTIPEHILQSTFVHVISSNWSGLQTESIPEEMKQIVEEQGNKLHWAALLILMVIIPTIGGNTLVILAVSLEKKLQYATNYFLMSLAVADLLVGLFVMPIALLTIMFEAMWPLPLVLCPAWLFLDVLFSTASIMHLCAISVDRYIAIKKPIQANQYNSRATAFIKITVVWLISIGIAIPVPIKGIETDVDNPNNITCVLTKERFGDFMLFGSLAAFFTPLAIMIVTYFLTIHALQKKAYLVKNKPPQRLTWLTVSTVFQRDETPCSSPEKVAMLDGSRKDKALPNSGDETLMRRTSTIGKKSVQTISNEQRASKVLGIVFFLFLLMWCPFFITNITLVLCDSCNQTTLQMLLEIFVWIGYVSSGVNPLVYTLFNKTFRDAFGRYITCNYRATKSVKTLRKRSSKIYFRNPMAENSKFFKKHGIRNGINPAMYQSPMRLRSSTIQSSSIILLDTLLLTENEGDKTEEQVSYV
Sequence of 5-hydroxytryptamine receptor 4 (O70528 whole entry): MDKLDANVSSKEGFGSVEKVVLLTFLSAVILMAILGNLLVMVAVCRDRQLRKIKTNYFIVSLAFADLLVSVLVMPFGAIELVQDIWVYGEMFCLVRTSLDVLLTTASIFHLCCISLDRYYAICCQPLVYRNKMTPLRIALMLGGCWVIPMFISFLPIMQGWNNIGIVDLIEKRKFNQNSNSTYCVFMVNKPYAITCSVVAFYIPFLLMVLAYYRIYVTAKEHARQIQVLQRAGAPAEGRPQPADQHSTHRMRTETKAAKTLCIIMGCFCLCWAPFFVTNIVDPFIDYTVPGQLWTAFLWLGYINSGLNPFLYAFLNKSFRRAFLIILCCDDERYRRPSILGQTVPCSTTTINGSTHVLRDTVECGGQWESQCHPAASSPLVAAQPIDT
Sequence of Estrogen receptor beta (Q92731 whole entry): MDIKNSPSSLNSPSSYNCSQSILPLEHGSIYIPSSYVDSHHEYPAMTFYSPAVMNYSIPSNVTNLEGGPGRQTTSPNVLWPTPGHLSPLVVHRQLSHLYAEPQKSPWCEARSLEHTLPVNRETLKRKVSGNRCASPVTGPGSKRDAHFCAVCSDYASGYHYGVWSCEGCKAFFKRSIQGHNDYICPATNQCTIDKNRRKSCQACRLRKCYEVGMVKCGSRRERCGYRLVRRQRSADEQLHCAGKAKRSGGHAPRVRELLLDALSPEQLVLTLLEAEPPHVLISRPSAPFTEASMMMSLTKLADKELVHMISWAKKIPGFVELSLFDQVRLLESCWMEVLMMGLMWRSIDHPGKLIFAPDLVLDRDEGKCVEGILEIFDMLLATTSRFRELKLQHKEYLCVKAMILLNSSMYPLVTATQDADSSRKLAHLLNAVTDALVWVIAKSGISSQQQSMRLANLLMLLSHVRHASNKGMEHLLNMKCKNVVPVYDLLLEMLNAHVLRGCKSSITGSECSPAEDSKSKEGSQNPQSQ
Sequence of C-C chemokine receptor type 2 (P41597 whole entry): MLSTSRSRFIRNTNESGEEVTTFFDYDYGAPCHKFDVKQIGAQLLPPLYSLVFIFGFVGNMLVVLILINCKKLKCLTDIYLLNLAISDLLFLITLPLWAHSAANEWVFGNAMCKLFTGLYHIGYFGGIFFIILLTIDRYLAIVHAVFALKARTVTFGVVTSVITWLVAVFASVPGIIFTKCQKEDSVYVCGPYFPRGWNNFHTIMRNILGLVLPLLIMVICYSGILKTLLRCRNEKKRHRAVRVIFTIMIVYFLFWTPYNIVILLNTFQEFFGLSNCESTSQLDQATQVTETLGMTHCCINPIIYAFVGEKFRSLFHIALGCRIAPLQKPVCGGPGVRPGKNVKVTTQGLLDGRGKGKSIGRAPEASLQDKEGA

One may read the IC50 as the concentration that inhibits the measured activity by half. Take `COC1=C(OC)C(=O)C(CCCCCCCCCCO)=C(C)C1=O` [IDEBENONE]: the IC50 result in assay [1], in assay [2] (cho-k1), in assay [3], in assay [4], in assay [5] (reticulocytes) and in assay [6] was “Not Active” throughout.

Turning to `CC(C)NNC(=O)c1ccncc1` [IPRONIAZID], the concentration for half-maximal inhibition (IC50) entry in assay [1], in assay [2] (cho-k1), in assay [3], in assay [4], in assay [5] (reticulocytes) and in assay [6] was “Not Active” each time.

With `Cc1c(OCC(F)(F)F)ccnc1C[S+]([O-])c1nc2ccccc2[nH]1` (configuration not stated) [LANSOPRAZOLE], the IC50 result in assay [1], in assay [2] (cho-k1), in assay [3], in assay [4], in assay [5] (reticulocytes) and in assay [6] was “Not Active” throughout.

Usually Ki stands for a dissociation constant, usually derived from enzyme kinetics or from competition with a known ligand. On to `O=c1cc(N2CCOCC2)oc2c(-c3ccccc3)cccc12` [LY-294002], for which the IC50 result in assay [1] is “Not Active”; in assay [2] (read-out: IC50) it was 36.7 µM; in assay [3], “Not Active”; in assay [4], “Not Active”; in assay [5] (reticulocytes), “Not Active”; in assay [6], “Not Active”. Moreover, in assay [2] (read-out: Ki), the Ki was found to be 23.4 µM.

In the case of `COc1ccc2[nH]cc(CCNC(C)=O)c2c1` [MELATONIN], the IC50 result in assay [1], in assay [2] (cho-k1), in assay [3], in assay [4], in assay [5] (reticulocytes) and in assay [6] was “Not Active” in each case.

Take `NC(=O)C[S+]([O-])C(c1ccccc1)c1ccccc1` (configuration not stated) [MODAFINIL]: the IC50 entry in assay [1], in assay [2] (cho-k1), in assay [3], in assay [4], in assay [5] (reticulocytes) and in assay [6] was “Not Active” each time.

For the compound `CCN(CC)CCOCCC1=CCC2CC1C2(C)C` (configuration not stated) [MYRTECAINE], the half-maximal inhibitory concentration (IC50) result in assay [1], in assay [2] (cho-k1), in assay [3], in assay [4], in assay [5] (reticulocytes) and in assay [6] was “Not Active” each time.

For the compound `O=C(O)c1cccnc1Nc1cccc(C(F)(F)F)c1` [NIFLUMIC ACID], the IC50 result in assay [1], in assay [2] (cho-k1), in assay [3], in assay [4], in assay [5] (reticulocytes) and in assay [6] was “Not Active” each time.

Turning to `O=C(N/N=C/c1ccc([N+](=O)[O-])o1)c1cc([N+](=O)[O-])cc([N+](=O)[O-])c1O` [NIFURSOL], the concentration for half-maximal inhibition (IC50) result in assay [1], in assay [2] (cho-k1), in assay [3], in assay [4], in assay [5] (reticulocytes) and in assay [6] was “Not Active” each time.

On to `COC(=O)Nc1nc2ccc(C(=O)c3cccs3)cc2[nH]1` [NOCODAZOLE], for which the half-inhibitory concentration (IC50) result in assay [1] is “Not Active”; in assay [2] (read-out: IC50), 20.2 µM; in assay [3], “Not Active”; in assay [4] it was “Not Active”; in assay [5] (reticulocytes), “Not Active”; in assay [6], “Not Active”. Also, in assay [2] (read-out: Ki), the Ki is 12.8 µM.

Take `CC(=O)O[C@H]1C(=O)[C@@]2(C)[C@H]([C@H](OC(=O)c3ccccc3)[C@]3(O)C[C@H](OC(=O)[C@H](O)[C@@H](NC(=O)c4ccccc4)c4ccccc4)C(C)=C1C3(C)C)[C@]1(OC(C)=O)CO[C@@H]1C[C@@H]2O` [PACLITAXEL]: the IC50 result in assay [1], in assay [2] (cho-k1), in assay [3], in assay [4], in assay [5] (reticulocytes) and in assay [6] was “Not Active” each time.

As for `C[n+]1ccc(-c2cc[n+](C)cc2)cc1.[Cl-].[Cl-]` [PARAQUAT DICHLORIDE], the IC50 entry in assay [1], in assay [2] (cho-k1), in assay [3], in assay [4], in assay [5] (reticulocytes) and in assay [6] was “Not Active” in each case.

`CCn1cc(C(=O)O)c(=O)c2cnc(N3CCCC3)nc21` [PIROMIDIC ACID]: the half-maximal inhibitory concentration (IC50) entry in assay [1], in assay [2] (cho-k1), in assay [3], in assay [4], in assay [5] (reticulocytes) and in assay [6] was “Not Active” in each case.

`C[n+]1ccccc1/C=N/O.[Cl-]` [PRALIDOXIME CHLORIDE]: the IC50 entry in assay [1], in assay [2] (cho-k1), in assay [4], in assay [5] (reticulocytes) and in assay [6] was “Not Active” in each case. In addition, in assay [3], the inhibition constant (Ki) entry is reported as “Not Active”.

On to `COc1cc2nc(N3CCN(C(=O)c4ccco4)CC3)nc(N)c2cc1OC` [PRAZOSIN], for which the IC50 entry in assay [1] is “Not Active”; in assay [2] (read-out: IC50) it was 4.12 µM; in assay [3] it was “Not Active”; in assay [4] it was “Not Active”; in assay [5] (reticulocytes), “Not Active”; in assay [6], “Not Active”. In addition, the Ki in assay [2] (read-out: Ki) was 2.62 µM.

As to `C[C@]12C=CC(=O)C=C1CC[C@@H]1[C@@H]2[C@@H](O)C[C@@]2(C)[C@H]1CC[C@]2(O)C(=O)CO` [PREDNISOLONE], the IC50 entry in assay [1], in assay [2] (cho-k1), in assay [3], in assay [4], in assay [5] (reticulocytes) and in assay [6] was “Not Active” each time.

In the case of `CC(=O)[C@H]1[C@H](C#N)C[C@H]2[C@@H]3CC=C4C[C@@H](O)CC[C@]4(C)[C@H]3CC[C@@]21C` [PREGNENOLONE CARBONITRILE], the IC50 result in assay [1], in assay [2] (cho-k1), in assay [3], in assay [4], in assay [5] (reticulocytes) and in assay [6] was “Not Active” in each case.

For the compound `CCCN(CCC)S(=O)(=O)c1ccc(C(=O)O)cc1` [PROBENECID], the half-inhibitory concentration (IC50) result in assay [1], in assay [2] (cho-k1), in assay [3], in assay [4], in assay [5] (reticulocytes) and in assay [6] was “Not Active” throughout.

Take `CCCOc1ccc(C(=O)OCCN(CC)CC)cc1N` [PROPARACAINE]: the IC50 result in assay [1], in assay [2] (cho-k1), in assay [3], in assay [4], in assay [5] (reticulocytes) and in assay [6] was “Not Active” in each case.

Take `CC(C)c1cccc(C(C)C)c1O` [PROPOFOL]: the half-maximal inhibitory concentration (IC50) result is “Not Active” in assay [1]; 5.5 µM in assay [2] (read-out: IC50); “Not Active” in assay [3]; “Not Active” in assay [4]; 7.6 µM in assay [5] (read-out: IC50); “Not Active” in assay [6]. Further, the Ki in assay [2] (read-out: Ki) came to 3.5 µM.

On to `C[C@@H]1O[C@@H](O[C@@H]2C=C3CC[C@@H]4[C@H](CC[C@]5(C)[C@@H](c6ccc(=O)oc6)CC[C@]45O)[C@@]3(C)CC2)[C@H](O)[C@H](O)[C@H]1O` [PROSCILLARIDIN], for which the 50% inhibitory concentration (IC50) entry in assay [1], in assay [2] (cho-k1), in assay [3], in assay [4], in assay [5] (reticulocytes) and in assay [6] was “Not Active” in each case.

As for `Oc1cccc(O)c1O` [PYROGALLOL], the half-inhibitory concentration (IC50) entry in assay [1] was “Not Active”; in assay [2] (cho-k1) it was “Not Active”; in assay [3], “Not Active”; in assay [4] it was “Not Active”; in assay [5] (read-out: IC50), 2.11 µM; in assay [6], “Not Active”.

On to AURANOFIN, for which the IC50 entry in assay [1], in assay [2] (cho-k1), in assay [3], in assay [4], in assay [5] (reticulocytes) and in assay [6] was “Not Active” throughout. In addition, the inhibitory constant (Ki) entry in assay [1], in assay [2] (cho-k1), in assay [3], in assay [4], in assay [5] (reticulocytes) and in assay [6] was “Not Active” each time.

In the case of GADOPENTETATE DIMEGLUMINE, the IC50 entry in assay [1], in assay [2] (cho-k1), in assay [3], in assay [4], in assay [5] (reticulocytes) and in assay [6] was “Not Active” throughout. Also, the Ki entry in assay [1], in assay [2] (cho-k1), in assay [3], in assay [4], in assay [5] (reticulocytes) and in assay [6] was “Not Active” throughout.

With GENTAMICIN, the IC50 entry in assay [1], in assay [2] (cho-k1), in assay [3], in assay [4], in assay [5] (reticulocytes) and in assay [6] was “Not Active” each time. In addition, the inhibition constant (Ki) entry in assay [1], in assay [2] (cho-k1), in assay [3], in assay [4], in assay [5] (reticulocytes) and in assay [6] was “Not Active” throughout.

For the origin of these results see ChEMBL document CHEMBL1909046, “DrugMatrix in vitro pharmacology data”.
